# ChEMBL document CHEMBL1201862, “PubChem BioAssay data set” (2004)
#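 48-hour exposure; five concentrations; linearly interpolated endpoints. GI50 marks 50% less growth.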 The source made the active and inactive calls. Rule as the data show it: active = GI50 up to about 1.1 µM and inactive = higher.
# Experiments:
# Assay in all cases: growth of human tumour cells (NCI), 48 h
# [1] = test system: UACC-257
# [2] = test system: DU-145
# [3] = test system: UACC-62
# [4] = test system: HCT-15
# [5] = test system: OVCAR-4
# [6] = test system: SK-MEL-2
# [7] = test system: HT-29
# [8] = test system: NCI/ADR-RES
# [9] = test system: KM12
# [10] = test system: IGROV-1
# [11] = test system: LOX IMVI
# [12] = test system: MOLT-4
# [13] = test system: BT-549
# [14] = test system: NCI-H226
# [15] = test system: SNB-75
# [16] = test system: NCI-H23
# [17] = test system: UO-31
# [18] = test system: PC-3
# [19] = test system: Hs-578T
# [20] = test system: HCC 2998
# [21] = test system: CCRF-CEM
# [22] = test system: HCT-116
# [23] = test system: RXF 393
# [24] = test system: EKVX
# [25] = test system: SNB-19
# [26] = test system: SR
# [27] = test system: K562
# [28] = test system: M14
# [29] = test system: MCF7
# [30] = test system: OVCAR-3
# [31] = test system: OVCAR-8
# [32] = test system: U-251
# [33] = test system: HOP-62
# [34] = test system: ACHN
# [35] = test system: 786-0
# [36] = test system: SK-OV-3
# [37] = test system: A498
# [38] = test system: SW-620
# [39] = test system: SF-539
# [40] = test system: COLO 205
# [41] = test system: OVCAR-5
# [42] = test system: HOP-92
# [43] = test system: SF-295
# [44] = test system: SK-MEL-28
# [45] = test system: T47D
# [46] = test system: Malme-3M
# [47] = test system: A549
# [48] = test system: MDA-MB-231
# [49] = test system: SK-MEL-5
# [50] = test system: SF-268
# [51] = test system: SN12C
# [52] = test system: TK-10
# [53] = test system: MDA-N
# [54] = test system: MDA-MB-435
# [55] = test system: RPMI-8226
# [56] = test system: NCI-H460
compound,measurement,setting,value
COC(=O)[C@]1(Cc2ccc3ccccc3c2)CCCCCCN1C(=O)c1ccccc1,GI50,[1],12.5 µM (inactive)
same,GI50,[2],> 43.6 µM (inactive)
same,GI50,[3],> 35.6 µM (inactive)
same,GI50,[4],> 31.8 µM
same,GI50,[5],12.7 µM (inactive)
same,GI50,[6],12.6 µM (inactive)
same,GI50,[7],> 28.2 µM (inactive)
same,GI50,[8],> 34 µM (inactive)
same,GI50,[9],> 34.1 µM (inactive)
same,GI50,[10],> 37.8 µM (inactive)
same,GI50,[11],16.7 µM (inactive)
same,GI50,[12],> 21.3 µM (inactive)
same,GI50,[13],> 39.5 µM (inactive)
same,GI50,[14],> 37.9 µM (inactive)
same,GI50,[15],17.5 µM (inactive)
same,GI50,[16],> 29.3 µM (inactive)
same,GI50,[17],> 21 µM (inactive)
same,GI50,[18],> 22.4 µM (inactive)
same,GI50,[19],18.7 µM (inactive)
same,GI50,[20],> 34 µM (inactive)
same,GI50,[21],> 23.9 µM (inactive)
same,GI50,[22],> 25.4 µM (inactive)
same,GI50,[23],> 32.2 µM (inactive)
same,GI50,[24],> 27.7 µM (inactive)
same,GI50,[25],> 44.6 µM (inactive)
same,GI50,[26],> 100 µM (inactive)
same,GI50,[27],> 22 µM (inactive)
same,GI50,[28],> 36.1 µM (inactive)
same,GI50,[29],> 32.2 µM (inactive)
same,GI50,[30],> 24.9 µM (inactive)
same,GI50,[31],> 33.3 µM (inactive)
same,GI50,[32],> 26.7 µM (inactive)
same,GI50,[33],> 30.1 µM (inactive)
same,GI50,[34],> 34.4 µM (inactive)
same,GI50,[35],> 37 µM (inactive)
same,GI50,[36],> 49.1 µM (inactive)
same,GI50,[37],> 36.1 µM (inactive)
same,GI50,[38],> 40.8 µM (inactive)
same,GI50,[39],> 39.6 µM (inactive)
same,GI50,[40],11.4 µM (inactive)
same,GI50,[41],> 38 µM (inactive)
same,GI50,[42],> 38.5 µM (inactive)
same,GI50,[43],> 23.4 µM (inactive)
same,GI50,[44],> 37.2 µM (inactive)
same,GI50,[45],> 30.3 µM (inactive)
same,GI50,[46],> 38.5 µM (inactive)
same,GI50,[47],> 100 µM (inactive)
same,GI50,[48],> 36.4 µM (inactive)
same,GI50,[49],> 100 µM (inactive)
same,GI50,[50],> 33.8 µM (inactive)
same,GI50,[51],> 37 µM (inactive)
same,GI50,[52],> 36.6 µM (inactive)
same,GI50,[53],> 38 µM (inactive)
same,GI50,[54],> 37.2 µM (inactive)
same,GI50,[55],4.15 µM (inactive)
same,GI50,[56],> 34.4 µM (inactive)
